Measurements published in the NIST ThermoML archive (doi:10.1016/j.tca.2012.05.025).
± gives the expanded uncertainty stated by the source.

How the values were obtained:
[1] = for surface tension liquid-gas: roughened platinum plate-detachment; for viscosity / mass density: 101 kPa, Liquid; for viscosity: Capillary tube (Ostwald / Ubbelohde) method; for mass density: Vibrating tube method
[2] = refractive index (Na D-line) (dimensionless); conditions: 101.33 kPa, Liquid, Standard Abbe refractometry
[3] = xn = mol fraction of the nth substance listed; conditions: x2 = 0; for surface tension liquid-gas: roughened platinum plate-detachment; for viscosity / mass density: 101 kPa, Liquid; for viscosity: Capillary tube (Ostwald / Ubbelohde) method; for mass density: Vibrating tube method
[4] = refractive index (Na D-line) (dimensionless); xn = mol fraction of the nth substance listed; conditions: 101 kPa, Liquid, Standard Abbe refractometry, x2 = 0

## O [water]
[1]; 298.15 K
  surface tension liquid-gas: 72.09 ± 0.1 mN/m
  viscosity: 0.882 ± 0.018 mPa·s
[1]; 303.15 K
  surface tension liquid-gas: 71.27 ± 0.1 mN/m
  viscosity: 0.804 ± 0.017 mPa·s
[1]; 308.15 K
  surface tension liquid-gas: 70.44 ± 0.1 mN/m
[1]; 313.15 K
  surface tension liquid-gas: 69.66 ± 0.1 mN/m
  viscosity: 0.659 ± 0.014 mPa·s
[1]; 318.15 K
  surface tension liquid-gas: 68.83 ± 0.1 mN/m
[1]; 323.15 K
  surface tension liquid-gas: 67.95 ± 0.1 mN/m
  viscosity: 0.551 ± 0.012 mPa·s
  mass density: 988.03 ± 0.11 kg/m3
[1]; 333.15 K
  surface tension liquid-gas: 66.23 ± 0.1 mN/m
  viscosity: 0.47 ± 0.01 mPa·s
  mass density: 983.19 ± 0.11 kg/m3
[1]; 343.15 K
  viscosity: 0.407 ± 0.009 mPa·s
  mass density: 977.75 ± 0.11 kg/m3
[2]; 293.15 K
  refractive index: 1.333 ± 0.005
[2]; 298.15 K
  refractive index: 1.3325 ± 0.005
[2]; 303.15 K
  refractive index: 1.3319 ± 0.005
[2]; 308.15 K
  refractive index: 1.3314 ± 0.005
[2]; 313.15 K
  refractive index: 1.3307 ± 0.005
[2]; 318.15 K
  refractive index: 1.3299 ± 0.005
[2]; 323.15 K
  refractive index: 1.3291 ± 0.005
[2]; 328.15 K
  refractive index: 1.3282 ± 0.005
[2]; 333.15 K
  refractive index: 1.3273 ± 0.005

## O [water] + CN(C)CCCO
[3]; 298.15 K
  surface tension liquid-gas: 72.09 ± 2 mN/m
  viscosity: 0.882 ± 0.018 mPa·s
[3]; 303.15 K
  surface tension liquid-gas: 71.27 ± 2 mN/m
  viscosity: 0.804 ± 0.017 mPa·s
[3]; 308.15 K
  surface tension liquid-gas: 70.44 ± 2 mN/m
[3]; 313.15 K
  surface tension liquid-gas: 69.66 ± 2 mN/m
  viscosity: 0.659 ± 0.014 mPa·s
[3]; 318.15 K
  surface tension liquid-gas: 68.83 ± 2 mN/m
[3]; 323.15 K
  surface tension liquid-gas: 67.95 ± 2 mN/m
  viscosity: 0.551 ± 0.012 mPa·s
  mass density: 988.03 ± 0.11 kg/m3
[3]; 333.15 K
  surface tension liquid-gas: 66.23 ± 2 mN/m
  viscosity: 0.47 ± 0.01 mPa·s
  mass density: 983.19 ± 0.11 kg/m3
[3]; 343.15 K
  viscosity: 0.407 ± 0.009 mPa·s
  mass density: 977.75 ± 0.11 kg/m3
[4]; 293.15 K
  refractive index: 1.333 ± 0.005
[4]; 298.15 K
  refractive index: 1.3325 ± 0.005
[4]; 303.15 K
  refractive index: 1.3319 ± 0.005
[4]; 308.15 K
  refractive index: 1.3314 ± 0.005
[4]; 313.15 K
  refractive index: 1.3307 ± 0.005
[4]; 318.15 K
  refractive index: 1.3299 ± 0.005
[4]; 323.15 K
  refractive index: 1.3291 ± 0.005
[4]; 328.15 K
  refractive index: 1.3282 ± 0.005
[4]; 333.15 K
  refractive index: 1.3273 ± 0.005

## CN(C)CCCO [3-dimethylamino-1-propanol]
[1]; 298.15 K
  surface tension liquid-gas: 29.01 ± 0.18 mN/m
  viscosity: 5.839 ± 0.12 mPa·s
  mass density: 880.25 ± 0.24 kg/m3
[1]; 303.15 K
  surface tension liquid-gas: 29.28 ± 0.18 mN/m
  viscosity: 4.963 ± 0.11 mPa·s
  mass density: 876.46 ± 0.24 kg/m3
[1]; 308.15 K
  surface tension liquid-gas: 28.88 ± 0.18 mN/m
[1]; 313.15 K
  surface tension liquid-gas: 28.47 ± 0.17 mN/m
  viscosity: 4.266 ± 0.091 mPa·s
  mass density: 868.42 ± 0.24 kg/m3
[1]; 318.15 K
  surface tension liquid-gas: 28.13 ± 0.17 mN/m
[1]; 323.15 K
  surface tension liquid-gas: 27.63 ± 0.17 mN/m
  viscosity: 3.253 ± 0.069 mPa·s
  mass density: 860.29 ± 0.24 kg/m3
[1]; 333.15 K
  surface tension liquid-gas: 26.81 ± 0.17 mN/m
  viscosity: 2.768 ± 0.059 mPa·s
  mass density: 852.1 ± 0.24 kg/m3
[1]; 343.15 K
  viscosity: 2.03 ± 0.043 mPa·s
  mass density: 843.77 ± 0.24 kg/m3
[2]; 293.15 K
  refractive index: 1.4368 ± 0.005
[2]; 298.15 K
  refractive index: 1.4347 ± 0.005
[2]; 303.15 K
  refractive index: 1.4326 ± 0.005
[2]; 308.15 K
  refractive index: 1.4305 ± 0.005
[2]; 313.15 K
  refractive index: 1.4285 ± 0.005
[2]; 318.15 K
  refractive index: 1.4264 ± 0.005
[2]; 323.15 K
  refractive index: 1.4243 ± 0.005
[2]; 328.15 K
  refractive index: 1.4222 ± 0.005
[2]; 333.15 K
  refractive index: 1.42 ± 0.005
